Test results from PubChem BioAssay (NCI).
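Interpolation was linear, between the two tested concentrations surrounding the appropriate level; five concentrations were tested over 48 hours in 96-well plates. Definition used: TGI = concentration required for complete inhibition of growth.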 Where a SMILES comes first, the peptide text is derived from it. Side-chain parts run from the residue outwards. The star is where a group is joined. Cbz = O=C(OCc1ccccc1)*; Boc = CC(C)(C)OC(=O)*

Legend:
Assay in all cases: inhibition of tumour cell growth, NCI panel, 48 h
HT29 colon = tested on: HT29 colon
ACHN renal = tested on: ACHN renal
CAKI-1 renal = tested on: CAKI-1 renal
U251 CNS = tested on: U251 CNS
A549 NSCLC = tested on: A549 NSCLC
SNB-19 CNS = tested on: SNB-19 CNS
HOP-92 NSCLC = tested on: HOP-92 NSCLC
EKVX NSCLC = tested on: EKVX NSCLC
MDA-N = tested on: MDA-N
HCT-116 colon = tested on: HCT-116 colon
SK-MEL-28 melanoma = tested on: SK-MEL-28 melanoma
BT-549 breast = tested on: BT-549 breast
SK-MEL-2 melanoma = tested on: SK-MEL-2 melanoma
SW-620 colon = tested on: SW-620 colon
UO-31 renal = tested on: UO-31 renal
RXF 393 renal = tested on: RXF 393 renal
HCC-2998 colon = tested on: HCC-2998 colon
SK-MEL-5 melanoma = tested on: SK-MEL-5 melanoma
CCRF-CEM leukemia = tested on: CCRF-CEM leukemia
K-562 leukemia = tested on: K-562 leukemia
MDA-MB-231 breast = tested on: MDA-MB-231 breast
SF-539 CNS = tested on: SF-539 CNS
PC-3 prostate = tested on: PC-3 prostate
OVCAR-3 ovarian = tested on: OVCAR-3 ovarian
TK-10 renal = tested on: TK-10 renal
MOLT-4 leukemia = tested on: MOLT-4 leukemia
NCI-H226 lung = tested on: NCI-H226 lung
OVCAR-5 ovarian = tested on: OVCAR-5 ovarian
DU-145 prostate = tested on: DU-145 prostate
T-47D breast = tested on: T-47D breast
HOP-62 NSCLC = tested on: HOP-62 NSCLC
NCI-H522 lung = tested on: NCI-H522 lung
IGROV1 ovarian = tested on: IGROV1 ovarian
SN12C renal = tested on: SN12C renal
OVCAR-4 ovarian = tested on: OVCAR-4 ovarian
M14 melanoma = tested on: M14 melanoma
786-0 renal = tested on: 786-0 renal
NCI-H23 lung = tested on: NCI-H23 lung
MALME-3M melanoma = tested on: MALME-3M melanoma
SF-295 CNS = tested on: SF-295 CNS
NCI/ADR-RES ovarian = tested on: NCI/ADR-RES ovarian
MCF7 breast = tested on: MCF7 breast
MDA-MB-435 = tested on: MDA-MB-435
NCI-H460 lung = tested on: NCI-H460 lung
OVCAR-8 ovarian = tested on: OVCAR-8 ovarian
KM12 colon = tested on: KM12 colon
RPMI-8226 leukemia = tested on: RPMI-8226 leukemia
HCT-15 colon = tested on: HCT-15 colon
SR leukemia = tested on: SR leukemia
SNB-75 CNS = tested on: SNB-75 CNS
UACC-62 melanoma = tested on: UACC-62 melanoma
UACC-257 melanoma = tested on: UACC-257 melanoma
HL-60(TB) leukemia = tested on: HL-60(TB) leukemia
LOX IMVI melanoma = tested on: LOX IMVI melanoma
COLO 205 colon = tested on: COLO 205 colon
SF-268 CNS = tested on: SF-268 CNS
SK-OV-3 ovarian = tested on: SK-OV-3 ovarian
A498 renal = tested on: A498 renal
HS 578T breast = tested on: HS 578T breast

Cc1cc(NS(=O)(=O)c2ccc(NC(=O)c3cccc4c(NNc5ccc(S(N)(=O)=O)cc5)c5ccccc5nc34)cc2)no1
TGI (HT29 colon): 73.2 µM | TGI (ACHN renal): > 100 µM | TGI (CAKI-1 renal): > 100 µM | TGI (U251 CNS): 63.6 µM | TGI (A549 NSCLC): > 100 µM | TGI (SNB-19 CNS): > 100 µM | TGI (HOP-92 NSCLC): 82 µM | TGI (EKVX NSCLC): > 100 µM | TGI (MDA-N): > 100 µM | TGI (HCT-116 colon): > 100 µM | TGI (SK-MEL-28 melanoma): 89 µM | TGI (BT-549 breast): > 100 µM | TGI (SK-MEL-2 melanoma): 61 µM | TGI (SW-620 colon): > 100 µM | TGI (UO-31 renal): > 100 µM | TGI (RXF 393 renal): > 100 µM | TGI (HCC-2998 colon): 92.9 µM | TGI (SK-MEL-5 melanoma): > 100 µM | TGI (CCRF-CEM leukemia): 66.2 µM | TGI (K-562 leukemia): > 100 µM | TGI (MDA-MB-231 breast): > 100 µM | TGI (SF-539 CNS): > 100 µM | TGI (PC-3 prostate): > 100 µM | TGI (OVCAR-3 ovarian): 71.1 µM | TGI (TK-10 renal): > 100 µM | TGI (MOLT-4 leukemia): 87.9 µM | TGI (NCI-H226 lung): 91.7 µM | TGI (OVCAR-5 ovarian): > 100 µM | TGI (DU-145 prostate): > 100 µM | TGI (T-47D breast): > 100 µM | TGI (HOP-62 NSCLC): > 100 µM | TGI (NCI-H522 lung): 72.8 µM | TGI (IGROV1 ovarian): > 100 µM | TGI (SN12C renal): > 100 µM | TGI (OVCAR-4 ovarian): > 100 µM | TGI (M14 melanoma): > 100 µM | TGI (786-0 renal): > 100 µM | TGI (NCI-H23 lung): > 100 µM | TGI (MALME-3M melanoma): > 100 µM | TGI (SF-295 CNS): > 100 µM | TGI (NCI/ADR-RES ovarian): > 100 µM | TGI (MCF7 breast): > 100 µM | TGI (MDA-MB-435): > 100 µM | TGI (NCI-H460 lung): > 100 µM | TGI (OVCAR-8 ovarian): > 100 µM | TGI (KM12 colon): > 100 µM | TGI (RPMI-8226 leukemia): > 100 µM | TGI (HCT-15 colon): > 100 µM | TGI (SR leukemia): 93.2 µM | TGI (SNB-75 CNS): 96.6 µM | TGI (UACC-62 melanoma): > 100 µM | TGI (UACC-257 melanoma): > 100 µM | TGI (HL-60(TB) leukemia): 76.5 µM | TGI (LOX IMVI melanoma): 86.1 µM | TGI (COLO 205 colon): > 100 µM | TGI (SF-268 CNS): > 100 µM | TGI (SK-OV-3 ovarian): > 100 µM

CC(C)CC(NC(=O)OCc1ccccc1)C(=O)NCCCCC(NC(=O)C(CCCCNC(=O)C(CC(C)C)NC(=O)OCc1ccccc1)NC(=O)C(CCCCNC(=O)C(CC(C)C)NC(=O)OCc1ccccc1)NC(=O)C(CCCCNC(=O)C(CC(C)C)NC(=O)OCc1ccccc1)NC(=O)OC(C)(C)C)C(=O)O (stereo unspecified) (Boc-K([Leu-Cbz])K([Leu-Cbz])K([Leu-Cbz])K([Leu-Cbz])-OH; configuration not given here)
TGI (HT29 colon): > 25 µM | TGI (ACHN renal): > 25 µM | TGI (CAKI-1 renal): > 25 µM | TGI (U251 CNS): > 25 µM | TGI (A549 NSCLC): > 25 µM | TGI (SNB-19 CNS): > 25 µM | TGI (MDA-N): > 25 µM | TGI (HCT-116 colon): > 25 µM | TGI (SK-MEL-28 melanoma): > 25 µM | TGI (BT-549 breast): > 25 µM | TGI (SK-MEL-2 melanoma): > 25 µM | TGI (SW-620 colon): > 25 µM | TGI (UO-31 renal): > 25 µM | TGI (HCC-2998 colon): > 25 µM | TGI (SK-MEL-5 melanoma): > 25 µM | TGI (CCRF-CEM leukemia): > 25 µM | TGI (K-562 leukemia): > 25 µM | TGI (MDA-MB-231 breast): > 25 µM | TGI (PC-3 prostate): > 25 µM | TGI (OVCAR-3 ovarian): > 25 µM | TGI (TK-10 renal): > 25 µM | TGI (MOLT-4 leukemia): > 25 µM | TGI (NCI-H226 lung): > 25 µM | TGI (OVCAR-5 ovarian): > 25 µM | TGI (DU-145 prostate): > 25 µM | TGI (T-47D breast): > 25 µM | TGI (HOP-62 NSCLC): > 25 µM | TGI (NCI-H522 lung): > 25 µM | TGI (IGROV1 ovarian): > 25 µM | TGI (SN12C renal): > 25 µM | TGI (OVCAR-4 ovarian): > 25 µM | TGI (M14 melanoma): > 25 µM | TGI (786-0 renal): > 25 µM | TGI (NCI-H23 lung): > 25 µM | TGI (MALME-3M melanoma): > 25 µM | TGI (A498 renal): > 25 µM | TGI (MCF7 breast): > 25 µM | TGI (MDA-MB-435): > 25 µM | TGI (NCI-H460 lung): > 25 µM | TGI (OVCAR-8 ovarian): > 25 µM | TGI (RPMI-8226 leukemia): > 25 µM | TGI (HCT-15 colon): > 25 µM | TGI (SR leukemia): > 25 µM | TGI (SNB-75 CNS): > 25 µM | TGI (UACC-62 melanoma): > 25 µM | TGI (UACC-257 melanoma): > 25 µM | TGI (HL-60(TB) leukemia): > 25 µM | TGI (LOX IMVI melanoma): > 25 µM | TGI (SF-268 CNS): > 25 µM

CC[C@@]1(O)C(=O)OCc2c1cc1n(c2=O)Cc2c-1nc1ccccc1c2/C=N\NC(=O)C(N)=O
TGI (HT29 colon): > 100 µM | TGI (ACHN renal): 0.814 µM | TGI (CAKI-1 renal): 17.5 µM | TGI (U251 CNS): 13.6 µM | TGI (A549 NSCLC): > 100 µM | TGI (SNB-19 CNS): 9.65 µM | TGI (HOP-92 NSCLC): 12.9 µM | TGI (EKVX NSCLC): > 100 µM | TGI (MDA-N): > 100 µM | TGI (HCT-116 colon): > 53.9 µM | TGI (SK-MEL-28 melanoma): > 100 µM | TGI (BT-549 breast): > 90.9 µM | TGI (SK-MEL-2 melanoma): > 77.8 µM | TGI (SW-620 colon): > 100 µM | TGI (UO-31 renal): 12 µM | TGI (RXF 393 renal): 37.5 µM | TGI (HCC-2998 colon): > 100 µM | TGI (SK-MEL-5 melanoma): 2.96 µM | TGI (K-562 leukemia): > 100 µM | TGI (MDA-MB-231 breast): > 100 µM | TGI (SF-539 CNS): 0.177 µM | TGI (PC-3 prostate): > 100 µM | TGI (OVCAR-3 ovarian): > 100 µM | TGI (TK-10 renal): > 100 µM | TGI (MOLT-4 leukemia): > 23.7 µM | TGI (OVCAR-5 ovarian): > 100 µM | TGI (DU-145 prostate): 10.9 µM | TGI (HOP-62 NSCLC): > 45.1 µM | TGI (NCI-H522 lung): 46.5 µM | TGI (IGROV1 ovarian): 49.4 µM | TGI (SN12C renal): > 100 µM | TGI (OVCAR-4 ovarian): > 100 µM | TGI (M14 melanoma): 14.3 µM | TGI (786-0 renal): 16 µM | TGI (NCI-H23 lung): 3.67 µM | TGI (MALME-3M melanoma): > 79.3 µM | TGI (A498 renal): 9.81 µM | TGI (SF-295 CNS): 14.8 µM | TGI (NCI/ADR-RES ovarian): > 73.5 µM | TGI (MCF7 breast): > 45.4 µM | TGI (MDA-MB-435): > 100 µM | TGI (NCI-H460 lung): 29.9 µM | TGI (OVCAR-8 ovarian): 37 µM | TGI (KM12 colon): > 100 µM | TGI (RPMI-8226 leukemia): > 100 µM | TGI (HCT-15 colon): > 100 µM | TGI (SNB-75 CNS): > 26 µM | TGI (UACC-62 melanoma): 3.54 µM | TGI (UACC-257 melanoma): > 100 µM | TGI (HL-60(TB) leukemia): > 100 µM | TGI (LOX IMVI melanoma): 3.72 µM | TGI (HS 578T breast): > 100 µM | TGI (COLO 205 colon): > 100 µM | TGI (SF-268 CNS): > 100 µM | TGI (SK-OV-3 ovarian): 27.5 µM
